# Experimental data from patent US20080280933A1, “BENZIMIDAZOLYL COMPOUNDS” (priority 2006, published 2008).
# Where two headings read alike, the source gives them in different places.
# Target: T1, mGluR2 receptor (metabotropic glutamate receptor 2) (Homo sapiens, UniProt Q14416)
# T1 construct: expressed in transfected cells
# Experiment: mGluR2 Potentiator Screen, FLIPR, EC10-EC20 glutamate challenge
# Format: cell-based
# Details: read-out: EC50
# Experimental: Procedure for mGluR2 Potentiator Screen NLB Methods EC10-EC20 Challenge Cell Culture and Plating:
# Cells used for this screen are HEK cells stably transfected with the mGluR2 receptor (metabotropic glutamate receptor 2) and the Gα15 G protein. Clones were identified by functional activity (FLIPR). Cells are grown in growth media containing: DMEM High Glucose with Glutamine and Na Pyruvate (GIBCO), 10% (v/v) Heat inactivate FBS (GIBCO) G418 500 ug/ml (from 50 mg/ml stock) (GIBCO) and Blasticidin 3 ug/ml (from 5 mg/ml stock made in H2O) (Invitrogen).
# 2 days before the assay cell are trypsinized with 0.25% trysin/EDTA (GIBCO), spun down at 1000 rpm for 5 minutes, resuspended in growth media and plated on polystyrene 384 well black wall/clear bottom poly-D-lysine coated plates at a density of approximately 18,000 cells/well in a volume of 50 μL per well. One day before the assay the growth media is removed from the plates by flicking and replaced with media containing DMEM High Glucose without Glutamine and Na Pyruvate (GIBCO) and 10% (v/v) dialyzed FBS (GIBCO). The reason for the removal of glutamine the day before the assay is to minimize the amount of glutamate that will be present during the assay, as endogenous glutarnate released from the cells can reduce the fluorescent response and interfere with the FLIPR screen.
# FLIPR Methods and Data Analysis:
# On the day of the assay, the FLIPR assay is performed using the following methods:
# The pH is adjusted to 7.4 with 1M NaOH. Prepare a 2 mM (approx.) stock solution of Fluo-4.am (Molecular Probes) dye in DMSO −22 μl DMSO per 50 ug vial (440 μL per 1 mg vial). Make a 1 mM (approx.) flou-4, PA working solution per vial by adding 22 μl of 20% pluronic acid (PA) (Molecular Probes) in DMSO to each 50 ug vial (440 μL per 1 mg vial). Prepare a 250 mM Probenecid (Sigma) stock solution by dissolving 0.71 g into 5 ml 1N NaOH and 5 ml assay buffer (for each liter of assay wash buffer). Make 4 uM (approx.) dye incubation media by adding 2.50 ug vials per 11 ml DMEM high glucose without glutamine (220 ml per 1 mg vial). Add 110 μL probenecid stock per 11 ml (2.5 mM final [concentration]). To the dye media add 3 units/ml of glutamic-pyruvic transaminase (GPT, Sigma) and 3 mM Na Pyruvate. The assay has worked with dye concentrations from 2 uM to 8 uM dye as well. To the assay buffer from drug preparation, add 1.83 mls DMSO and 400 μL. 15.8% P104 (from New Leads biology) per liter for final concentrations of 0.18% DMSO and 0.006% P104. To the assay buffer for cell washing, add probenecid in the same manner and concentration that was used for the dye media.
# Remove growth media from cell plates by flicking. Add 50 μl/well dye solution. Incubate 1 hour at 37° C. and 5% CO2. Remove dye solution and wash 3 times with assay buffer+probenecid (100 μl probenecid stock per 10 ml buffer), leaving 30 μL/well assay buffer. Wait at least 10-15 minutes. Compounds and agonist challenge additions are performed with the FLIPR. The in addition is for test compounds, which are added as 15 μL of 4× [concentration] of potentiator. The second 2nd addition is 15 μL of 4× [concentration] of agonist or challenge. This achieves 1× concentration of all compounds only after 2nd addition. The 1st and 2nd additions are performed separately using the FLIPR, which give 2 different data files. Compounds are pretreated at least 30 minutes before agonist addition.
# Results are analyzed by dividing the peak fluorescent value of the FLIPR response by the […] to achieve a ratio response. The ratios are then analyzed by curve fitting programs. Since potent compounds can give an inverted U dose response curve (due to effects on endogenous glutamate by the potentiators) points are deleted at concentrations higher than the concentration that gives the maximum effect. Maximum values for dose response curves (forced fitting) are derived from standards on the plate.
# Compound Preparation and Glutamate Challenge: […]
# T1 sequence (Q14416 19-872, species assumed): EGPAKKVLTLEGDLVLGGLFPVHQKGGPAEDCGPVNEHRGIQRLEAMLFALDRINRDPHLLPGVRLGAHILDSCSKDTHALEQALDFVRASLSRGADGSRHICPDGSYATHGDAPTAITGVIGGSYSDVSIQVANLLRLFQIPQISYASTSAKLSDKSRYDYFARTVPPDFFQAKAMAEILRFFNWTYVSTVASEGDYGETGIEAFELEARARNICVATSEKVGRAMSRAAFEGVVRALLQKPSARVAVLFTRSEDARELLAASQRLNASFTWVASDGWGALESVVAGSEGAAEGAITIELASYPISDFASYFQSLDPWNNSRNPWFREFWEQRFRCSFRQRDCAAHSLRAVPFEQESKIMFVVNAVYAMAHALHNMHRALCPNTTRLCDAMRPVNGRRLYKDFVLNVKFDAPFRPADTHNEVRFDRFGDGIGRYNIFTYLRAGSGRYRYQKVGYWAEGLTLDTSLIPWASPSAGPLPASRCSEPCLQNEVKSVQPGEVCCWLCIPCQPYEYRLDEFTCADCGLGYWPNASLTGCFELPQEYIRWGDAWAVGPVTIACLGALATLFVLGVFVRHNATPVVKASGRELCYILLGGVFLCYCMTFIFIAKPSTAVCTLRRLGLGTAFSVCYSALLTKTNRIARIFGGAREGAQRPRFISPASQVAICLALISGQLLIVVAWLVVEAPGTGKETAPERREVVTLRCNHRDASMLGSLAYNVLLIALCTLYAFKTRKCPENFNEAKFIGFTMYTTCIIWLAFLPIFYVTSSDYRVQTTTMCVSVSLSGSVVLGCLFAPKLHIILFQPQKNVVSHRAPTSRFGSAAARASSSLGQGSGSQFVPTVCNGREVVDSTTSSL
Compound,EC50,EC50 (listed as 9)
2-((4-(2-Fluorophenyl)piperidin-1-yl)methyl)-1-methyl-1H-benzo[d]imidazole-5-carbonitrile [Entry 272],439 nM,–
2-((4-(2-Fluorophenyl)piperidin-1-yl)methyl)-1-methyl-6-phenyl-1H-benzo[d]imidazole [Entry 276],3100 nM,–
2-((4-(2-Fluorophenyl)piperidin-1-yl)methyl)-3-methyl-3H-benzo[d]imidazole-5-carbonitrile [Entry 275],2620 nM,–
2-((4-(2-fluorophenyl)piperidin-1-yl)methyl)-6-methoxy-1-methyl-1H-benzo[d]imidazole [Entry 278],1620 nM,–
2-[4-(2-Methoxy-phenyl)-piperidin-1-ylmethyl]-1-methyl-1H-benzoimidazol-4-ylamine [Entry 264],5210 nM,–
2-[4-(2-Methoxy-phenyl)-piperidin-1-ylmethyl]-1-methyl-1H-benzoimidazole-5-carboxylic acid [Entry 288],569 nM,–
"2-{[Cis-4-(3,4-Difluoro-phenyl)-3-methyl-piperidin-1-yl]methyl}-1-methyl-1H-benzoimidazole [Entry 462]",1810 nM,–
4-Fluoro-2-((4-(2-Fluorophenyl)piperidin-1-yl)methyl)-1-methyl-1H-benzo[d]imidazole [Entry 325],97.9 nM,–
5-(2-Methoxy-phenyl)-1-(1-methyl-1H-benzoimidazol-2-ylmethyl)-azepan-2-one [Entry 291],916 nM,–
"C[C@@H]1CN(Cc2nc3ccccc3n2C)CC[C@@H]1c1ccc(F)c(F)c1 (racemic) [Entry 462, 2-{[Cis-4-(3,4-Difluoro-phenyl)-3-methyl-piperidin-1-yl]methyl}-1-methyl-1H-benzoimidazole]",241 nM,–
COCCn1c(CN2CC[C@H](c3ccccc3OC)[C@H](C)C2)nc2ccccc21 (relative stereo) [compound 336],2360 nM,–
COc1ccccc1[C@H]1CCN(Cc2nc3ccccc3n2C)C[C@H]1C (relative stereo) [compound 337],323 nM,–
COc1ccccc1[C@H]1CCN(Cc2nc3ccccc3n2C2CC2)C[C@H]1C (relative stereo) [compound 338],1450 nM,–
COc1ccccc1[C@H]1CCN(Cc2nc3ccccc3n2CCF)C[C@H]1C (relative stereo) [compound 339],604 nM,–
C[C@@H]1CN(Cc2nc3ccccc3n2C)CC[C@@H]1c1ccc(C(F)(F)F)cc1 (relative stereo) [compound 404],471 nM,–
"C[C@@H]1CN(Cc2nc3ccccc3n2C)CC[C@@H]1c1ccc(F)c(F)c1 (single isomer, unassigned) [Entry 472, 2-{[Cis-4-(3,4-Difluoro-phenyl)-3-methyl-piperidin-1-yl]methyl}-1-methyl-1H-benzoimidazole]",152 nM,–
"C[C@@H]1CN(Cc2nc3ccccc3n2C)CC[C@@H]1c1ccc(F)c(F)c1 (single isomer, unassigned) [Entry 473, 2-{[Cis-4-(3,4-Difluoro-phenyl)-3-methyl-piperidin-1-yl]methyl}-1-methyl-1H-benzoimidazole]",1030 nM,–
"CN1CC2(CCN(Cc3nc4ccccc4n3C)CC2)c2cc(Br)ccc21 [Entry 104, 5-Bromo-1-methyl-1'-[(1-methyl-1H-benzimidazole-2-yl)methyl]-1,2-dihydrospiro[indole-3,4'-piperidine]]",1410 nM,–
"Cn1c(CN2CCC(c3ccccc3F)CC2)nc2cc(C#N)ccc21 [Entry 272, 2-((4-(2-Fluorophenyl)piperidin-1-yl)methyl)-1-methyl-1H-benzo[d]imidazole-5-carbonitrile]",73 nM,–
"Cn1c(CN2CCC(c3ccccc3F)CC2)nc2ccc(C#N)cc21 [Entry 275, 2-((4-(2-Fluorophenyl)piperidin-1-yl)methyl)-3-methyl-3H-benzo[d]imidazole-5-carbonitrile]",211 nM,–
"Cn1c(CN2CCC(c3ccccc3F)CC2)nc2ccc(-c3ccccc3)cc21 [Entry 276, 2-((4-(2-Fluorophenyl)piperidin-1-yl)methyl)-1-methyl-6-phenyl-1H-benzo[d]imidazole]",204 nM,–
"COc1ccc2nc(CN3CCC(c4ccccc4F)CC3)n(C)c2c1 [Entry 278, 2-((4-(2-fluorophenyl)piperidin-1-yl)methyl)-6-methoxy-1-methyl-1H-benzo[d]imidazole]",46.6 nM,–
Cc1ccc2nc(CN3CCC(c4ccccc4F)CC3)n(C)c2c1 [Entry 279],327 nM,2170 nM
"COc1ccccc1C1CCN(Cc2nc3cc(C(=O)O)ccc3n2C)CC1 [Entry 288, 2-[4-(2-Methoxy-phenyl)-piperidin-1-ylmethyl]-1-methyl-1H-benzoimidazole-5-carboxylic acid]",1680 nM,–
"COc1ccccc1C1CCC(=O)N(Cc2nc3ccccc3n2C)CC1 (centres unmarked) [Entry 291, 5-(2-Methoxy-phenyl)-1-(1-methyl-1H-benzoimidazol-2-ylmethyl)-azepan-2-one]",4660 nM,–
"Cn1c(CN2CCC(c3ccccc3F)CC2)nc2cc(CO)ccc21 [Entry 297, (2-((4-(2-Fluorophenyl)piperidin-1-yl)methyl)-1-methyl-1H-benzo[d]imidazol-5-yl)methanol]",169 nM,–

# Now from value to compound, other results behind:
EC50,Compound,EC50 (listed as 9)
2530 nM,2-(2-((4-(2-fluorophenyl)piperidin-1-yl)methyl)-1-methyl-1H-benzo[d]imidazol-5-yl)propan-2-ol [Entry 298],–
5210 nM,2-((4-(2-Fluorophenyl)piperidin-1-yl)methyl)-1-methyl-1H-benzo[d]imidazol-5-carboxamide [Entry 363],–
124 nM,C[C@@H]1CN(Cc2nc3ccccc3n2C)CC[C@@H]1c1ccccc1F (relative stereo) [compound 405],–
181 nM,C[C@@H]1CN(Cc2nc3ccccc3n2C)CC[C@@H]1c1ccc(F)c(Cl)c1 (relative stereo) [compound 456],–
454 nM,C[C@H]1C[C@@H](c2ccc(C(F)(F)F)cc2)CCN1Cc1nc2ccccc2n1C (relative stereo) [compound 457],–
128 nM,COc1cc(C(F)(F)F)ccc1[C@H]1CCN(Cc2nc3ccccc3n2C)C[C@H]1C (relative stereo) [compound 459],–
30.3 nM,C[C@@H]1CN(Cc2nc3ccccc3n2C)CC[C@@H]1c1ccc(Cl)cc1F (relative stereo) [compound 461],–
40.7 nM,C[C@@H]1CN(Cc2nc3ccccc3n2C)CC[C@@H]1c1ccc(F)cc1F (relative stereo) [compound 463],–
125 nM,COc1cc(F)ccc1[C@H]1CCN(Cc2nc3ccccc3n2C)C[C@H]1C (relative stereo) [compound 464],–
375 nM,C[C@@H]1CN(Cc2nc3ccccc3n2C)CC[C@@H]1c1ccc(C(F)(F)F)c(F)c1 (relative stereo) [compound 465],–
161 nM,C[C@@H]1CN(Cc2nc3ccccc3n2C)CC[C@@H]1c1ccc(C(F)(F)F)cc1C(F)(F)F (relative stereo) [compound 466],–
53.1 nM,C[C@@H]1CN(Cc2nc3ccccc3n2C)CC[C@@H]1c1ccc(C(F)(F)F)cc1Cl (relative stereo) [compound 467],–
86.2 nM,C[C@@H]1CN(Cc2nc3ccccc3n2C)CC[C@@H]1c1ccc(Cl)cc1Cl (relative stereo) [compound 468],–
> 351 nM,Cc1cc(Cl)ccc1[C@H]1CCN(Cc2nc3ccccc3n2C)C[C@H]1C (relative stereo) [compound 469],–
